Patent US11045487B2, “Pharmaceutical preparation treating bone lesions caused by malignant neoplasms” (priority 2016, dated 2021)

What was measured:
[1] = tested on: bone lesions caused by malignant neoplasms; assay: Phase I open non-randomized multicenter clinical study; assay type: in vivo; conditions: patients; intravenous infusion daily for 5 days, break of 23 days; on free acid basis
Procedure: To assess the efficacy and safety of the novel medicinal drug, clinical studies of phase I were conducted according to “Open non-randomized multicenter clinical study” protocol.
All patients received a single dosing with the study drug in a dose corresponding to the dose level of the cohort with the subsequent weekly follow-up period and at least 2 cycles of multiple dosing. The cycle consisted of daily administration (o.d.) of the drug for 5 days, followed by a break of 23 days. […] According to protocol criteria, the maximum tolerated dose is considered a dose 1 level lower than DLT (5 mg/kg).

[2] = Thermal behaviour of solutions for lyophilization (DSC); assay type: physicochemical
Text: Differential Scanning calorimetry (DSC) was used to identify the lowest possible transient temperature in the solution throughout the entire lyophilization process, including freezing and dehydration. For the solutions of most pharmaceutical products, this parameter is represented by the glass transition temperature or “Tgt”. All components and their amounts in the solution contribute to the final value of Tgt. This temperature is usually several degrees below the temperature at which the sintered material can crumble during the lyophilization process (collapse temperature, Tc). Without determining the collapse temperature by such methods as cryomicroscopy, the glass transition temperature can be used to select the primary drying temperature. Until the primary drying is completed, the initial drying temperature should be set in such a manner that there are no vials for which the glass transition temperature has been exceeded (or Tc, if known). Otherwise, the structure of the sintered material may get broken. On the one hand, the lyophilization temperature should be close to Tgt, so that the process proceeds efficiently, and on the other hand, it cannot exceed Tgt due to process requirements and qualitative product parameters. Thus, the values of collapse and glass transition temperature are important parameters for calculating safe upper temperature limits, which can be used for lyophilization. Based on the proposed filling of the vials with the drug (100 mg of active ingredient per vial), potential solutions for filling were prepared. The excipients included sterile water for injection (SWFI), 50 mM succinate and tartrate buffers at pH 5, MgCl2, sulfobutylether β-cyclodextrin (SBEβCD), mannitol and dextran 40. In addition, for solutions containing mannitol, a study of the effect of the annealing stage (the lyophilization process stage when the samples are kept at a certain temperature below the freezing point for a certain period of time) on the improvement the crystallinity of the finished product was performed. […]

[3] = Succinate buffer, MBC-11 25 mg/mL, MgCl2, 86.5 mmol/L
[4] = Tartrate buffer, MBC-11 25 mg/mL, MgCl2, 86.5 mmol/L

CC(O)(P(=O)(O)O)P(=O)(O)OP(=O)(O)OC[C@H]1O[C@@H](n2ccc(N)nc2=O)[C@@H](O)[C@@H]1O.[Na].[Na].[Na] (stereo partly drawn) [MBC-11, Trisodium salt of 1-((((((2R,3S,4S,5R)-5-(4-amino-2-oxopyrimidine-1(2H)-yl)-3,4-dihydroxytetrahydrofuran-2-yl)methoxy))(hydroxy)phosphoryloxy)(hydroxy)phosphoryl)-1-hydroxyethylphosphonic acid]
maximum tolerated daily dose [1]: 5 mg/kg | Thermal effect (event): endotherm ([2]; SWFI, MBC-11 25 mg/mL, MgCl2, 43.25 mmol/L): −21 °C (endotherm) | Thermal effect (event): possible crystallization ([2]; SWFI, MBC-11 25 mg/mL, MgCl2, 43.25 mmol/L + Mannitol, 25 mg/mL): −27 °C | Thermal effect (event): specific endothermicity (none crystallization after temperature processing) ([2]; SWFI, MBC-11 25 mg/mL, MgCl2, 43.25 mmol/L + Mannitol, 25 mg/mL, Annealing at −20° C.): −22 °C | Thermal effect (event): weak endothermicity (none crystallization after annealing) ([2]; SWFI, MBC-11 25 mg/mL, MgCl2, 43.25 mmol/L + Mannitol, 25 mg/mL, Annealing at −24° C.): −22 °C | Thermal effect (event): endothermicity ([2]; SWFI, MBC-11 25 mg/mL, MgCl2, 86.5 mmol/L): −26 °C (endothermicity) | Thermal effect (event) ([2]; SWFI, MBC-11 25 mg/mL, MgCl2, 86.5 mmol/L + Mannitol, 25 mg/mL): Tgt/endothermicity before | Thermal effect (event): endothermicity ([2]; SWFI, MBC-11 50 mg/mL, MgCl2, 86.5 mmol/L): −21 °C (endothermicity) | Thermal effect (event) ([2]; SWFI, MBC-11 50 mg/mL, MgCl2, 86.5 mmol/L + Mannitol, 25 mg/mL): Tgt/endothermicity before | Thermal effect (event): endothermicity ([2]; SWFI, MBC-11 50 mg/mL, MgCl2, 173 mmol/L): −26 °C (endothermicity) | Thermal effect (event) ([2]; SWFI, MBC-11 50 mg/mL, MgCl2, 173 mmol/L + Mannitol, 25 mg/mL): Tgt/endothermicity before | Thermal effect (event): endothermicity ([2]; SWFI, MBC-11 100 mg/mL, MgCl2, 173 mmol/L): −22 °C (endothermicity) | Thermal effect (event): endothermicity ([2]; SWFI, MBC-11 100 mg/mL, MgCl2, 350 mmol/L): −26 °C (endothermicity) | Thermal effect (event): crystallization [2, 3]: −34 °C (crystallization) | Thermal effect (event): endothermicity [2, 3]: −26 °C (endothermicity) | Thermal effect (event) ([2]; Succinate buffer, MBC-11 25 mg/mL, MgCl2, 86.5 mmol/L + Mannitol, 25 mg/mL): Tgt/endothermicity before | Thermal effect (event): crystallization [2, 4]: −30 °C (crystallization) | Thermal effect (event): endothermicity [2, 4]: −22 °C (endothermicity)
